For one compound, MIC results are on record in PMC5053523, “In Vitro Antibacterial Activity of Rhodanine Derivatives against Pathogenic Clinical Isolates” (PLoS ONE, 2016).

Molecules are shown by their SMILES. ≈ marks a conversion by molar mass, not a printed value.

The subject of the test is Staphylococcus epidermidis. The test can be described thus: Broth microdilution MIC, Staphylococcus epidermidis. Type of test: cell-based.

`O=C(O)[C@H](Cc1ccccc1)N1C(=O)/C(=C/c2cccc(-c3ccc(Cl)c(Cl)c3)c2)SC1=S` [Rh 2] returned an MIC of 4 µM (≈ 2.06 µg/mL).
